Test results as given in paper PMC12389269, “Heteroaryl-Capped Hydroxamic Acid Derivatives with Varied Linkers: Synthesis and Anticancer Evaluation with Various Apoptosis Analyses in Breast Cancer Cells, Including Docking, Simulation, DFT, and ADMET Studies” (Pharmaceuticals, 2025).
In brackets after ≈: the same amount, converted by molar mass. Read-outs that look alike come from different tables or passages of the source.

What was measured:
[1] = test system: MCF-7 (Human Breast Cancer Cell Line); experiment: SRB antiproliferative assay, MCF-7; format: cell-based
Description: (§1) Following an extensive review of the literature, we selected human breast cancer (MCF-7, MDA-MB-231) and lung cancer (A549) cell lines to evaluate the anticancer potential of the synthesized compounds, and some compounds with good anti-proliferation activity were again tested to evaluate their cytotoxic potential on A-549, MCF-7, and MDA-MB-231. The same were also tested on one non-cancerous/normal (HEK-293) cell line. All the cell lines for the required screening were developed in a suitable medium comprising 10% FBS and 2mM L-glutamine. Cancerous and non-cancerous/normal cell lines were selected for the cell proliferation and cytotoxicity assay and maintained with 5% CO2 at 37 °C in a CO2 incubator with 100% relative humidity for one complete day before the addition of experimental drugs.
(§2) Antiproliferative activity through an SRB assay was performed for all the synthesized compounds on A-549 and MCF-7 cell lines. Around 5000 cells/well were quarantined into a 96-well microtiter plate in 100 μL. The synthesized compounds were solubilized in DMSO and diluted to different concentrations before use. The final-drug-concentration aliquots were poured into microtiter wells, and the plates were incubated for 48 h in regular conditions. After adding the final drug concentration, the cells were allowed to set in place and incubated for 60 min. A total of 50 µL of SRB solution (0.4% w/v) in 1% CH3COOH was poured into each well. The plates were then incubated for 20 min at RT. During subsequent staining, the unbounded dye was removed, and the plate reader recorded the eluted bound stain at 540 nm with a 690 nm reference wavelength. The assay was performed precisely using the appropriate reagents and reaction situation, as per the reported procedure. ADR was selected as the reference drug.

[2] = test system: A-549 (Human Lung Cancer Cell Line); experiment: SRB antiproliferative assay, A-549; format: cell-based
Description: as §1, §2

HDAC1 = target: T1, HDAC1 (Homo sapiens, UniProt Q13547); experiment: HDAC inhibition assay (color de lys ELISA kit), HDAC1; format: biochemical; details: HeLa nuclear extract as source of HDAC activity
T1 construct: The HeLa nuclear extract was used as a source of HDAC activity; host or cells: HeLa (nuclear extract / cells)
T1 sequence (Q13547 whole entry): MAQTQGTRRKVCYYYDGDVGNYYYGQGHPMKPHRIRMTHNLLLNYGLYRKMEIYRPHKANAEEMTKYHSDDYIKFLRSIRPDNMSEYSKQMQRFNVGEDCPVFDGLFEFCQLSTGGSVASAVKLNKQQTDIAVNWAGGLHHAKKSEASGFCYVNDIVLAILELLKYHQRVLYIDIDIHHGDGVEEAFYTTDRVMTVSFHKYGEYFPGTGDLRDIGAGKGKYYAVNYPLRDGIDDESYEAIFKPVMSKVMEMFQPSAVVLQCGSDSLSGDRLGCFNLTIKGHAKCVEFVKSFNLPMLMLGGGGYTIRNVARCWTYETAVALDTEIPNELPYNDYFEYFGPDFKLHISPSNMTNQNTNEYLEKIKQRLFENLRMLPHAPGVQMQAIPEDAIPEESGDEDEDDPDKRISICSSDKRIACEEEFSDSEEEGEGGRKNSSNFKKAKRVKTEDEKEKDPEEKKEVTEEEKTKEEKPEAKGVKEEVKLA
Description: (§3) SAHA served as the assay’s positive control. The HeLa nuclear extract was used as a source of HDAC activity. The trypsinized HeLa cells were tallied, put into 96-well microtiter plates, and nurtured. Samples and the standard were placed in wells at a concentration of 100 µL. The culture environment was maintained as per the procedure. 3,3′,5,5′-tetramethylbenzidine (TMB) was included for visualization. Finally, 50 µL of halt solution was smeared. The samples and different SAHA concentrations (0.01, 0.1, 1, 10 μM) were introduced to the appropriate well and left for 72 h. BioTek Epoch (Winooski, VT, USA) microplate reader was used to quantify optical density at 450 nm. The Graph Pad Prism 5 helped to determine the IC50 values.

HDAC6 = target: T2, HDAC6 (Homo sapiens, UniProt Q9UBN7); experiment: HDAC inhibition assay (color de lys ELISA kit), HDAC6; format: biochemical; details: HeLa nuclear extract as source of HDAC activity
T2 construct: The HeLa nuclear extract was used as a source of HDAC activity; host or cells: HeLa (nuclear extract / cells)
T2 sequence (Q9UBN7 1-1215): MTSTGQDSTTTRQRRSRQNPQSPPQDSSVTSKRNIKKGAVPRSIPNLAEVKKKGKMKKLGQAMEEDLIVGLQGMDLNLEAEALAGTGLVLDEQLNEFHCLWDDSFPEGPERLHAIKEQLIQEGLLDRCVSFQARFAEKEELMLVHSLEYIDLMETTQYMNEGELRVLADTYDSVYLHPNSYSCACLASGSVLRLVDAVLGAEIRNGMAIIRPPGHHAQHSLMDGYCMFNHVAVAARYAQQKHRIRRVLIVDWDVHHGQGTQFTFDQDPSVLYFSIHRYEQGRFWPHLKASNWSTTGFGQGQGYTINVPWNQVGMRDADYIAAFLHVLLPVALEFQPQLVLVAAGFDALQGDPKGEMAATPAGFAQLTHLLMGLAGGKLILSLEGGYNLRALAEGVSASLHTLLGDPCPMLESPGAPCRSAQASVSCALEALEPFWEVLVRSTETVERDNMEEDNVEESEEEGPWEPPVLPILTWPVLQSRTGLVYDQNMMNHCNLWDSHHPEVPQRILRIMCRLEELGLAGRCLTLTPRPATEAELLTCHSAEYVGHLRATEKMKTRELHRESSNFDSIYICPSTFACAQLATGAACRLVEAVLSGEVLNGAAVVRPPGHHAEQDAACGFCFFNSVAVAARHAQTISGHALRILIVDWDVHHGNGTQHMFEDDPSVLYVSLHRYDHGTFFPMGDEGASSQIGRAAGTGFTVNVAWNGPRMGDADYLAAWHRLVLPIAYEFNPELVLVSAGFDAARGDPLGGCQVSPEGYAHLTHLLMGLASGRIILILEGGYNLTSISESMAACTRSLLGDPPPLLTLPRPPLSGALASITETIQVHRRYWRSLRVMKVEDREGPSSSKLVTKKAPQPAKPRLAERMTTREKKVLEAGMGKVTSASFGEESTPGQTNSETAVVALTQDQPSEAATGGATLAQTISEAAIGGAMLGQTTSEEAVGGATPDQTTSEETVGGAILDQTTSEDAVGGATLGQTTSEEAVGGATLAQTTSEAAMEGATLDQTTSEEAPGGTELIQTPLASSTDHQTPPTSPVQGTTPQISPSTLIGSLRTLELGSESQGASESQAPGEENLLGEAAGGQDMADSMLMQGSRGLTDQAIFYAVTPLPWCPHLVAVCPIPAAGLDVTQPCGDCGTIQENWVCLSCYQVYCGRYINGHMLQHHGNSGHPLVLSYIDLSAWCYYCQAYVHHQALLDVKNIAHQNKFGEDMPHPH
Description: as §3

[3] = Homo sapiens, MCF7, MCF-7, 48 h, read-out: GI50
[4] = Homo sapiens, A549, A-549, 48 h, read-out: GI50

Structure (SMILES)	GI50 [1, 3] [µg/mL]	GI50 [2, 4] [µg/mL]	IC50 (HDAC1) [µM]	IC50 (HDAC6) [µM]	GI50 ([1]; MCF-7, 48 h) [µg/mL]	GI50 ([2]; A-549, 48 h) [µg/mL]
COc1ccc(-c2cnn(-c3ccc(CCC(=O)NO)cc3)n2)cc1 [VI(o), N-Hydroxy-3-(4-(4-(4-methoxyphenyl)-2H-1,2,3-triazol-2-Yl)phenyl)propanamide]	> 80	62 (≈ 183 µM)	–	–	–	–
O=C(CCC(=O)c1ccc(-n2ncc(-c3ccc(Cl)cc3)n2)cc1)NO [VI(c), 4-(4-(4-(4-Chlorophenyl)-2H-1,2,3-triazol-2-yl)phenyl)-N-hydroxy-4-oxobutanamide]	< 10	< 10	21.2	31.7	–	–
O=C(CCCCCn1ncc(-c2ccc(O)cc2)n1)NO [VI(j), N-Hydroxy-6-(4-(4-hydroxyphenyl)-2H-1,2,3-triazol-2-yl)hexanamide]	17 (≈ 58.6 µM)	50 (≈ 172 µM)	–	–	–	–
O=C(CCC(=O)c1ccc(-n2ncc(-c3ccc(O)cc3)n2)cc1)NO [VI(e), N-Hydroxy-4-(4-(4-(4-hydroxyphenyl)-2H-1,2,3-triazol-2-yl)phenyl)-4-oxobutanamide]	< 10	< 10	27.2	18.6	–	–
COc1cccc2c1C(=O)c1c(O)c3c(c(O)c1C2=O)C[C@@](O)(C(=O)CO)C[C@@H]3O[C@H]1C[C@H](N)[C@H](O)[C@H](C)O1 [ADR, reference compound]	–	–	–	–	<10	<10
Cc1ccc(-c2cnn(CCCCCC(=O)NO)n2)cc1 [VI(k), N-Hydroxy-6-(4-(p-tolyl)-2H-1,2,3-triazol-2-Yl)hexanamide]	14.9 (≈ 51.5 µM)	> 80	–	–	–	–
Cc1ccc(-c2cnn(-c3ccc(CCC(=O)NO)cc3)n2)cc1 [VI(m), N-Hydroxy-3-(4-(4-(p-tolyl)-2H-1,2,3-triazol-2-yl)phenyl)propanamide]	> 80	> 80	–	–	–	–
O=C(CCc1ccc(-n2ncc(-c3ccc(Cl)cc3)n2)cc1)NO [VI(l), 3-(4-(4-(4-Chlorophenyl)-2H-1,2,3-triazol-2-Yl)phenyl)-N-hydroxypropanamide]	> 80	> 80	–	–	–	–
Cc1ccc(-c2cnn(-c3ccc(C(=O)CCC(=O)NO)cc3)n2)cc1 [VI(d), N-Hydroxy-4-oxo-4-(4-(4-(p-tolyl)-2H-1,2,3-triazol-2-yl)phenyl)butanamide]	12.9 (≈ 36.8 µM)	14.7 (≈ 41.9 µM)	–	–	–	–
O=C(CCCCCn1ncc(-c2ccc(Cl)cc2)n1)NO [VI(h), 6-(4-(4-Chlorophenyl)-2H-1,2,3-triazol-2-yl)-N-hydroxyhexanamide]	50 (≈ 162 µM)	> 80	–	–	–	–
O=C(CCC(=O)c1ccc(-n2ncc(-c3ccc(F)cc3)n2)cc1)NO [VI(f), 4-(4-(4-(4-Fluorophenyl)-2H-1,2,3-triazol-2-yl)phenyl)-N-hydroxy-4-oxobutanamide]	< 10	26.9 (≈ 76 µM)	–	–	–	–
O=C(CCc1ccc(-n2ncc(-c3ccc(O)cc3)n2)cc1)NO [VI(n), N-Hydroxy-3-(4-(4-(4-hydroxyphenyl)-2H-1,2,3-triazol-2-yl)phenyl)propanamide]	> 80	> 80	–	–	–	–
O=C(CCC(=O)c1ccc(-n2ncc(-c3ccc([N+](=O)[O-])cc3)n2)cc1)NO [VI(b), N-Hydroxy-4-(4-(4-(4-nitrophenyl)-2H-1,2,3-triazol-2-yl)phenyl)-4-oxobutanamide]	< 10	< 10	21.1	24.2	–	–
COc1ccc(-c2cnn(-c3ccc(C(=O)CCC(=O)NO)cc3)n2)cc1 [VI(a), N-Hydroxy-4-(4-(4-(4-methoxyphenyl)-2H-1,2,3-triazol-2-yl)phenyl)-4-oxobutanamide]	15.1 (≈ 41.3 µM)	19.4 (≈ 52.8 µM)	–	–	–	–
COc1ccc(-c2cnn(-c3ccc(C(=O)CCC(=O)NO)cc3)n2)cc1OC [VI(g), 4-(4-(4-(3,4-Dimethoxyphenyl)-2H-1,2,3-triazol-2-yl)phenyl)-N-hydroxy-4-oxobutanamide]	15 (≈ 37.8 µM)	53 (≈ 134 µM)	–	–	–	–
